Experimental data reported in patent US12059420B2 (BRISTOL-MYERS SQUIBB COMPANY, priority 2018, dated 2024).

biological target: T1, human IDO1 (Homo sapiens, UniProt P14902); assay: IDO inhibition assay in HEK293 cells stably expressing human IDO1 (kynurenine production, Ehrlich reagent, absorbance 490 nm); type: cell-based; conditions: 20 hours incubation with compound, 500 nM reference standard = 100% inhibition, read-out: IDO1 HEK Human IC50
T1 construct: expressed in transfected cells
Outline: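 Kynurenine output of stably IDO1-transfected HEK293 cells was measured by absorbance at 490 nm after mixing supernatant with 0.2% Ehrlich reagent, following TCA stop (0.2% final, 50° C., 30 min). Cells were incubated 20 hours with compound. Inhibition was scaled between DMSO and 500 nM reference standard.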

T1 sequence (P14902 whole entry): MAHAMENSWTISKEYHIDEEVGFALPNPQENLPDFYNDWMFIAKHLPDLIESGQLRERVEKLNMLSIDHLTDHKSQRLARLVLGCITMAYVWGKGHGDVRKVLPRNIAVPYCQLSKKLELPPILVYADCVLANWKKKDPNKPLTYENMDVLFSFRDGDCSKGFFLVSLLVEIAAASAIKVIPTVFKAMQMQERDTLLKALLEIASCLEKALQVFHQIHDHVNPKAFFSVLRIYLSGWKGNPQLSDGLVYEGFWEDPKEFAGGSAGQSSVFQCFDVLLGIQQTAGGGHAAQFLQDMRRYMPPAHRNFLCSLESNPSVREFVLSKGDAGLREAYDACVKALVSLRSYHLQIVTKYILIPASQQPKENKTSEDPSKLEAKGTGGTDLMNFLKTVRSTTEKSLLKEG

SMILES	IC50 [µM]
Cc1ccc(CC(=O)Nc2cc(-c3ccccc3-c3nnn[nH]3)nc(N(Cc3ncccn3)CC(C)C)n2)cc1 [Example 92, N-(6-(2-(1H-tetrazol-5-yl)phenyl)-2-(isobutyl(pyrimidin-2-ylmethyl)amino)pyrimidin-4-yl)-2-(p-tolyl)acetamide]	0.146
Cc1ccc(CC(=O)Nc2cc(-c3ccccc3-c3nnn[nH]3)nc(N3CCc4ccccc4C3)n2)cc1 [Example 94, N-(6-(2-(1H-tetrazol-5-yl)phenyl)-2-(3,4-dihydroisoquinolin-2(1H)-yl)pyrimidin-4-yl)-2-(p-tolyl)acetamide]	0.26
Cc1ccc(NC(=O)Nc2cc(-c3ccccc3-c3nnn[nH]3)nc(N3C[C@@H]4C[C@H]3CN4Cc3ccccc3)n2)cc1 [Example 98, 1-(6-(2-(1H-tetrazol-5-yl)phenyl)-2-((1 S,4S)-5-benzyl-2,5-diazabicyclo [2.2.1]heptan-2-yl)pyrimidin-4-yl)-3-(p-tolyl)urea]	0.846
CCN(CCC(F)(F)F)c1nc(NC(=O)Nc2ccc(C)cc2)cc(-c2ccccc2-c2nnn[nH]2)n1 [Example 99, 1-(6-(2-(1H-tetrazol-5-yl)phenyl)-2-(ethyl(3,3,3-trifluoropropyl)amino)pyrimidin-4-yl)-3-(p-tolyl)urea]	3.66
CCN(CCC(F)(F)F)c1nc(NC(=O)Cc2ccc(C)cc2)cc(-c2ccccc2-c2nnn[nH]2)n1 [Example 100, N-(6-(2-(1H-tetrazol-5-yl)phenyl)-2-(ethyl(3,3,3-trifluoropropyl)amino)pyrimidin-4-yl)-2-(p-tolyl)acetamide]	0.127
CCN(CCC(F)(F)F)c1cc(NC(=O)Cc2ccc(C)cc2)cc(-c2ccccc2-c2nnn[nH]2)n1 [Example 101, N-(2-(2-(1H-tetrazol-5-yl)phenyl)-6-(ethyl(3,3,3-trifluoropropyl)amino)pyridin-4-yl)-2-(p-tolyl)acetamide]	0.514
CC(C)CN(Cc1ccccc1)c1nc(Nc2nc3ccccc3o2)cc(-c2ccccc2-c2nnn[nH]2)n1 [Example 102, 6-(2-(1H-tetrazol-5-yl)phenyl)-N4-(benzo [d]oxazol-2-yl)-N2-benzyl-N2-isobutylpyrimidine-2,4-diamine]	0.0086
CCCN(c1cc(NC(=O)Nc2ccc(C)cc2)cc(-c2ccccc2-c2nnn[nH]2)n1)C1CCOCC1 [Example 109, 1-(2-(2-(1H-tetrazol-5-yl)phenyl)-6-(propyl(tetrahydro-2H-pyran-4-yl)amino)pyridin-4-yl)-3-(p-tolyl)urea]	4.12
CCCN(c1cc(NC(=O)Nc2ccc(C)cc2)cc(-c2ccccc2-c2nnn[nH]2)n1)C1CCC(C)(C)CC1 [Example 119, 1-(2-(2-(1H-tetrazol-5-yl)phenyl)-6-((4,4-dimethylcyclohexyl) (propyl)amino)pyridin-4-yl)-3-(p-tolyl)urea]	2.01
Cc1ccc(CC(=O)Nc2cc(-c3ccccc3-c3nnn[nH]3)nc(N3CC(C)OC(C)C3)c2)cc1 (stereo not drawn) [Example 125, N-(2-(2-(1H-tetrazol-5-yl)phenyl)-6-(2,6-dimethylmorpholino)pyridin-4-yl)-2-(p-tolyl)acetamide]	1.11
Cc1ccc(CC(=O)Nc2cc(-c3ccccc3-c3nnn[nH]3)nc(N3CCCC3C)c2)cc1 (stereo not drawn) [Example 128, N-(2-(2-(1H-tetrazol-5-yl)phenyl)-6-(2-methylpyrrolidin-1-yl)pyridin-4-yl)-2-(p-tolyl)acetamide]	1.8
COc1ccccc1N1CCN(c2cc(NC(=O)Cc3ccc(C)cc3)cc(-c3ccccc3-c3nnn[nH]3)n2)CC1 [Example 129, N-(2-(2-(1H-tetrazol-5-yl)phenyl)-6-(4-(2-methoxyphenyl)piperazin-1-yl)pyridin-4-yl)-2-(p-tolyl)acetamide]	1.25
Cc1cncc(Nc2cc(-c3ccccc3-c3nnn[nH]3)nc(N(Cc3ccccc3)CC(C)C)c2)n1 [Example 136, 6-(2-(1H-tetrazol-5-yl)phenyl)-N2-benzyl-N2-isobutyl-N4-(6-methylpyrazin-2-yl)pyridine-2,4-diamine]	0.078
CC(C)CN(Cc1ccccc1)c1cc(Nc2ccc3c(c2)OCO3)cc(-c2ccccc2-c2nnn[nH]2)n1 [Example 138, 6-(2-(1H-tetrazol-5-yl)phenyl)-N4-(benzo[d][1,3]dioxol-5-yl)-N2-benzyl-N2-isobutylpyridine-2,4-diamine]	0.012
CC(C)CN(Cc1ccccc1)c1cc(Nc2ccncc2F)cc(-c2ccccc2-c2nnn[nH]2)n1 [Example 139, 6-(2-(1H-tetrazol-5-yl)phenyl)-N2-benzyl-N4-(3-fluoropyridin-4-yl)-N2-isobutylpyridine-2,4-diamine]	0.0234
Cc1nccc(Nc2cc(-c3ccccc3-c3nnn[nH]3)nc(N(Cc3ccccc3)CC(C)C)c2)n1 [Example 140, 6-(2-(1H-tetrazol-5-yl)phenyl)-N2-benzyl-N2-isobutyl-N4-(2-methylpyrimidin-4-yl)pyridine-2,4-diamine]	0.142
CC(C)CN(Cc1ccccc1)c1cc(Nc2ccc(C(N)=O)cc2)cc(-c2ccccc2-c2nnn[nH]2)n1 [Example 144, 4-((2-(2-(1H-tetrazol-5-yl)phenyl)-6-(benzyl(isobutyl)amino)pyridin-4-yl)amino)benzamide]	0.665
Cc1ccc(Nc2cc(-c3ccccc3-c3nnn[nH]3)nc(N(Cc3ccccc3)CC(C)C)c2)c(F)c1 [Example 147, 6-(2-(1H-tetrazol-5-yl)phenyl)-N2-benzyl-N4-(2-fluoro-4-methylphenyl)-N2-isobutylpyridine-2,4-diamine]	0.0073
Cc1ccc(Nc2cc(-c3ccccc3-c3nnn[nH]3)nc(N(Cc3ccccc3)CC(C)C)c2)cc1 [Example 148, 6-(2-(1H-tetrazol-5-yl)phenyl)-N2-benzyl-N2-isobutyl-N4-(p-tolyl)pyridine-2,4-diamine]	0.0048
CCCc1cnc(Nc2cc(-c3ccccc3-c3nnn[nH]3)nc(N(Cc3ccccc3)CC(C)C)c2)nc1 [Example 149, 6-(2-(1H-tetrazol-5-yl)phenyl)-N2-benzyl-N2-isobutyl-N4-(5-propylpyrimidin-2-yl)pyridine-2,4-diamine]	0.0176

More lines, in order of falling IC50, values ahead:

IC50 [µM]	SMILES
6	COCCN(c1cc(NC(=O)Nc2ccc(F)cc2)cc(-c2ccccc2-c2nnn[nH]2)n1)C1CCC(F)(F)CC1 [Example 114, 1-(2-(2-(1H-tetrazol-5-yl)phenyl)-6-((4,4-difluorocyclohexyl)(2-methoxyethyl)amino)pyridin-4-yl)-3-(4-fluorophenyl)urea]
3.17	Cc1ccc(NC(=O)Nc2cc(-c3ccccc3-c3nnn[nH]3)nc(N3CCc4ccccc4C3)n2)cc1 [Example 93, 1-(6-(2-(1H-tetrazol-5-yl)phenyl)-2-(3,4-dihydroisoquinolin-2(1H)-yl)pyrimidin-4-yl)-3-(p-tolyl)urea]
2	Cc1ccc(CC(=O)Nc2cc(-c3ccccc3-c3nnn[nH]3)nc(N3CCCC(C)C3)c2)cc1 (stereo not drawn) [Example 126, N-(2-(2-(1H-tetrazol-5-yl)phenyl)-6-(3-methylpiperidin-1-yl)pyridin-4-yl)-2-(p-tolyl)acetamide]
1.6	Cc1ccc(CC(=O)Nc2cc(-c3ccccc3-c3nnn[nH]3)nc(N3CCCC3)c2)cc1 [Example 131, N-(2-(2-(1H-tetrazol-5-yl)phenyl)-6-(pyrrolidin-1-yl)pyridin-4-yl)-2-(p-tolyl)acetamide]
1.39	CC(C)c1ccc(CC(=O)Nc2cc(-c3ccccc3-c3nnn[nH]3)nc(N3CCc4ccccc4C3)n2)cc1 [Example 95, N-(6-(2-(1H-tetrazol-5-yl)phenyl)-2-(3,4-dihydroisoquinolin-2(1H)-yl)pyrimidin-4-yl)-2-(4-isopropylphenyl)acetamide]
1.24	Cc1ccc(CC(=O)Nc2cc(-c3ccccc3-c3nnn[nH]3)nc(N3CCCC(C)(C)C3)c2)cc1 [Example 135, N-(2-(2-(1H-tetrazol-5-yl)phenyl)-6-(3,3-dimethylpiperidin-1-yl)pyridin-4-yl)-2-(p-tolyl)acetamide]
1.15	Cc1ccc(CC(=O)Nc2cc(-c3ccccc3-c3nnn[nH]3)nc(N3CCN(Cc4ccccc4)C(=O)C3)n2)cc1 [Example 97, N-(6-(2-(1H-tetrazol-5-yl)phenyl)-2-(4-benzyl-3-oxopiperazin-1-yl)pyrimidin-4-yl)-2-(p-tolyl)acetamide]
1.05	Cc1ccc(CC(=O)Nc2cc(-c3ccccc3-c3nnn[nH]3)nc(N3CCCCCC3)c2)cc1 [Example 127, N-(2-(2-(1H-tetrazol-5-yl)phenyl)-6-(azepan-1-yl)pyridin-4-yl)-2-(p-tolyl)acetamide]
0.52	Cc1ccc(CC(=O)Nc2cc(-c3ccccc3-c3nnn[nH]3)nc(N3CCc4ccccc4C3)c2)cc1 [Example 132, N-(2-(2-(1H-tetrazol-5-yl)phenyl)-6-(3,4-dihydroisoquinolin-2(1H)-yl)pyridin-4-yl)-2-(p-tolyl)acetamide]
0.0736	Cc1ccnc(Nc2cc(-c3ccccc3-c3nnn[nH]3)nc(N(Cc3ccccc3)CC(C)C)c2)n1 [Example 145, 6-(2-(1H-tetrazol-5-yl)phenyl)-N2-benzyl-N2-isobutyl-N4-(4-methylpyrimidin-2-yl)pyridine-2,4-diamine]
0.0487	CC(C)CN(Cc1ccccc1)c1cc(Nc2cccc(CO)n2)cc(-c2ccccc2-c2nnn[nH]2)n1 [Example 137, (6-((2-(2-(1H-tetrazol-5-yl)phenyl)-6-(benzyl(isobutyl)amino)pyridin-4-yl)amino)pyridin-2-yl)methanol]
0.0396	CC(C)CN(Cc1ccccc1)c1cc(Nc2ncccn2)cc(-c2ccccc2-c2nnn[nH]2)n1 [Example 141, 6-(2-(1H-tetrazol-5-yl)phenyl)-N2-benzyl-N2-isobutyl-N4-(pyrimidin-2-yl)pyridine-2,4-diamine]
0.0368	Cc1ccc(Nc2cc(-c3ccccc3-c3nnn[nH]3)nc(N(Cc3ccccc3)CC(C)C)c2)nc1 [Example 142, 6-(2-(1H-tetrazol-5-yl)phenyl)-N2-benzyl-N2-isobutyl-N4-(5-methylpyridin-2-yl)pyridine-2,4-diamine]
